Laboratory results as given in patent US20260159528A1, “HETEROCYCLIC COMPOUNDS AS TRIGGERING RECEPTOR EXPRESSED ON MYELOID CELLS 2 AGONISTS AND METHODS OF USE” (Vigil Neuroscience, Inc., priority 2021, published 2026).

What follows are molecules tested against T1, human TREM2 (Homo sapiens, UniProt Q9NZC2) (assay: TREM2 agonist potency by cellular Syk phosphorylation (AlphaLisa) in HEK293T-hTREM2 cells). Conditions: Table D-2; HEK293 cells expressing human TREM2 and DAP12; pSyk AlphaLisa.
T1 construct: expressed in transfected cells; host or cells: HEK293T
Assay type: cell-based
Experimental: In vitro Measurement of Triggering Receptor Expressed on Myeloid Cells 2 activity using cellular phosphorylation of Spleen Tyrosine Kinase (“Syk”) Assays
Measurement of TREM2 agonist potency was done using a HEK cell line expressing human TREM2 and DAP12 (HEK293T-hTREM2 cells). Binding of small molecules to, and activation of, TREM2 increases the phosphorylation of Syk. The resultant levels of Syk phosphorylation are measured using a commercial AlphaLisa reagent kit. To perform the assay, HEK-hTREM2 cells were plated at 14,000 cells per well in a 384 well plate, in 25 µL of complete growth media and incubated at 37° C., 5% CO2 for 20-24 hours.
Prior to the assay, test compounds were diluted in the 384 well plates in assay buffer and allowed to equilibrate for 30 minutes. Growth media was removed from cell plates by inversion on blotting paper, and 25 μL of test articles in assay buffer was added to cells. Cells were incubated for 45 minutes at room temperature. After 45 minutes, assay buffer was removed and 10 μL of lysis buffer was added. Plates were shaken for 20 minutes at 350 RPM at room temperature. After complete lysis, AlphaLisa reagents were added to the lysate, and fluorescence intensity was measured using a Perkin Elmer Envision plate reader. Intensities were used to generate a standard curve, and % activation was calculated. Curve fitting was performed using Prism v9 software, log(agonist) vs response—variable slope (four parameters), and EC50s were calculated from the curve fit.
The results presented in Table D have been generated with the in vitro assay described above. This assay may be used to test any of the compounds described herein to assess and characterize a compound's ability to act as an agonist of TREM2.

T1 sequence (Q9NZC2 19-230): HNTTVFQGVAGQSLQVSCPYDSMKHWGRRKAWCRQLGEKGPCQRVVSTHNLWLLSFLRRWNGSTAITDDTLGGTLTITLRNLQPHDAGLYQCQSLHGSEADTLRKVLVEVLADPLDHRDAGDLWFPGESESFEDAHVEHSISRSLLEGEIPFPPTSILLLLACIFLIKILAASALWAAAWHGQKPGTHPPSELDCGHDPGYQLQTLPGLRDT
T1 sequence (O43914 22-113 partner): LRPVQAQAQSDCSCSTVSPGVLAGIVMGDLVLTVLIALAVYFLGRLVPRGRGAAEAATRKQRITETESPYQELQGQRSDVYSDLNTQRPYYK

SMILES	EC50 [nM]
C[C@@H]1CN(c2nc(-c3ccc(C(F)(F)F)cc3F)c3c(n2)nc(N(C)C)n3C)C[C@H](c2cnn(C3CC3)c2)O1 [Compound I-283, 2-((2S,6R)-2-(1-cyclopropyl-1H-pyrazol-4-yl)-6-methylmorpholino)-6-(2-fluoro-4-(trifluoromethyl)phenyl)-N,N,7-trimethyl-7H-purin-8-amine]	≤ 50
Cn1c(N2CCC2)nc2nc([C@H]3CCO[C@@H](c4cnn(C5CC5)c4)C3)nc(-c3ccc(F)cc3F)c21 [Compound I-293, 8-(azetidin-1-yl)-2-((2R,4S)-2-(1-cyclopropyl-1H-pyrazol-4-yl)tetrahydro-2H-pyran-4-yl)-6-(2,4-difluorophenyl)-7-methyl-7H-purine]	50 to 500
CN(c1nc2nc([C@H]3CCO[C@@H](c4cnn(C5CC5)c4)C3)nc(-c3ccc(F)cc3F)c2n1C)C1CC1 [Compound I-298]	50 to 500
CN(C)c1nc2nc([C@H]3CCO[C@@H](c4cnn(C5CC5)c4)C3)nc(-c3ccc(F)cc3F)c2n1C [Compound I-303, 2-((2R,4S)-2-(1-cyclopropyl-1H-pyrazol-4-yl)tetrahydro-2H-pyran-4-yl)-6-(2,4-difluorophenyl)-N,N,7-trimethyl-7H-purin-8-amine]	50 to 500
